Source: US20100286136A1, “DIHYDRONAPHTHYRIDINYL AND RELATED COMPOUNDS FOR USE IN TREATING OPHTHALMOLOGICAL DISORDERS” (priority 2009, published 2010)

Each compound was assayed against T1, CCR2b (Homo sapiens, UniProt P41597) (assay: AequoScreen CCR2b calcium flux assay, antagonist mode against reference agonist MCP-1). Settings: AequoScreen CCR2b (FAST-060A) cells; inhibition of reference agonist MCP-1 at its EC80; read-out: IC50 (μM) Ca^++flux.
T1 construct: host or cells: AequoScreen CCR2b cells
T1 sequence (P41597 1-360 isoform P41597-2): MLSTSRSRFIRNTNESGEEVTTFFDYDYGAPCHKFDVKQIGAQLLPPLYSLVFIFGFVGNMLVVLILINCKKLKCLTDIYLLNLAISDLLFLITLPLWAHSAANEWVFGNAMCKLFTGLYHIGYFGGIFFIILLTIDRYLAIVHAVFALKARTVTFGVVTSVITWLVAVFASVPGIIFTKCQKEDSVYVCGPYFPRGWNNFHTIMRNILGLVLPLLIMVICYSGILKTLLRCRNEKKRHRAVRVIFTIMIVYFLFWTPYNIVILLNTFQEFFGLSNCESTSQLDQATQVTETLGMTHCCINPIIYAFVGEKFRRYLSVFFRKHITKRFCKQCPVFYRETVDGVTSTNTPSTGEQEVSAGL
Assay type: cell-based
Method: The biological activity of the compounds described herein can be evaluated using assays known in the art, such as the AequoScreen™ assay.
AequoScreen™ CCR2b (FAST-060A) cells grown to mid-log phase in culture media without antibiotics are detached with PBS-EDTA, centrifuged and resuspended in assay buffer (DMEM/HAM's F12 with HEPES, without phenol red+0.1% BSA protease free) at a concentration of 1×10^6 cells/mL. Cells are incubated at room temperature for at least 4 hours with coelenterazine h. Dose response curves are performed before testing. The reference agonist is MCP-1.
For agonist testing, 50 μL of cell suspension is mixed with 50 μL of test compound in a 96-well plate. The resulting emission of light is recorded using a Hamamatsu Functional Drug Screening System 6000 (FDSS 6000).
Following an incubation of 15 minutes after the first injection, 100 μL of the resulting cell suspension containing the test compound is mixed with 100 μL of the reference agonist in the 96 well test plate. The resulting emission of light is recorded using the same luminometer as for agonist testing.
Agonist activity of a test compound can be expressed as a percentage of the activity of the reference agonist at its EC100 concentration. Antagonist activity of a test compound can be expressed as a percentage of the inhibition of reference agonist activity at its EC80 concentration.

Compound	IC50 [µM]
Cn1c(=O)ccc2ccc(CN3CCC(CC4CC4)(C(=O)N4CCc5ncc(C(F)(F)F)cc5C4)C3)cc21 (single isomer, unassigned) [Example 4, 5 (Enantiomer I)]	< 0.2
Cn1c(=O)ccc2ccc(CN3CCC(CC4CC4)(C(=O)N4CCc5ncc(C(F)(F)F)cc5C4)C3)cc21 (single isomer, unassigned) [Example 4, 5 (Enantiomer II)]	< 0.2
CC(C)CC1(C(=O)N2CCc3ncc(C(F)(F)F)cc3C2)CCN(Cc2ccc3ccc(=O)n(C)c3c2)CC1 [Example 1, 7-((4-Isobutyl-4-(3-(trifluoromethyl)-5,6,7,8-tetrahydro-1,6-naphthyridine-6-carbonyl)piperidin-1-yl)methyl)-1-methylquinolin-2(1H)-one]	0.2 to 1
COc1cc(CN2CCC(CC(C)C)(C(=O)N3CCc4ncc(C(F)(F)F)cc4C3)CC2)ccc1O [Example 2, (1-(4-Hydroxy-3-methoxybenzyl)-4-isobutylpiperidin-4-yl)(3-(trifluoromethyl)-7,8-dihydro-1,6-naphthyridin-6(5H)-yl)methanone]	> 1
Cn1c(=O)ccc2ccc(CN3CCC(CC4CC4)(C(=O)N4CCc5ncc(C(F)(F)F)cc5C4)C3)cc21 (stereo not shown) [Example 3, 7-((3-(Cyclopropylmethyl)-3-(3-(trifluoromethyl)-5,6,7,8-tetrahydro-1,6-naphthyridine-6-carbonyl)pyrrolidin-1-yl)methyl)-1-methylquinolin-2(1H)-one]	< 0.2
COc1cc(CN2CCC(CC3CC3)(C(=O)N3CCc4ncc(C(F)(F)F)cc4C3)C2)ccc1O (stereo not shown) [Example 6, (1-(4-Hydroxy-3-methoxybenzyl)-3-(cyclopropylmethyl)pyrrolidin-3-yl)(3-(trifluoromethyl)-7,8-dihydro-1,6-naphthyridin-6(5H)-yl)methanone]	0.2 to 1
O=C(N1CCc2ncc(C(F)(F)F)cc2C1)C1(CC2CC2)CCN(Cc2ccc(O)c(F)c2)C1 (stereo not shown) [Example 7, (3-(Cyclopropylmethyl)-1-(3-fluoro-4-hydroxybenzyl)pyrrolidin-3-yl)(3-(trifluoromethyl)-7,8-dihydro-1,6-naphthyridin-6(5H)-yl)methanone]	> 1
O=C(N1CCc2ncc(C(F)(F)F)cc2C1)C1(CC2CC2)CCN(CC2CCOCC2)C1 (stereo not shown) [Example 8, (3-(Cyclopropylmethyl)-1-((tetrahydro-2H-pyran-4-yl)methyl)pyrrolidin-3-yl)(3-(trifluoromethyl)-7,8-dihydro-1,6-naphthyridin-6(5H)-yl)methanone]	0.2 to 1
CC1(C)CC(CN2CCC(CC3CC3)(C(=O)N3CCc4ncc(C(F)(F)F)cc4C3)C2)CCO1 (stereo not shown) [Example 9, (3-(Cyclopropylmethyl)-1-((2,2-dimethyltetrahydro-2H-pyran-4-yl)methyl)pyrrolidin-3-yl)(3-(trifluoromethyl)-7,8-dihydro-1,6-naphthyridin-6(5H)-yl)methanone]	0.2 to 1

Second part, the compound after the results:

IC50 [µM]	Compound
< 0.2	3-Ethyl-6-((3-(methoxymethyl)-3-(3-(trifluoromethyl)-5,6,7,8-tetrahydro-1,6-naphthyridine-6-carbonyl)pyrrolidin-1-yl)methyl)benzo[d]oxazol-2(3H)-one [Example 42]
< 0.2	5-Bromo-6-((3-(methoxymethyl)-3-(3-(trifluoromethyl)-5,6,7,8-tetrahydro-1,6-naphthyridine-6-carbonyl)pyrrolidin-1-yl)methyl)-3-methylbenzo[d]oxazol-2(3H)-one [Example 43]
< 0.2	COCC1(C(=O)N2CCc3ncc(C(F)(F)F)cc3C2)CCN(Cc2ccc3ccc(=O)n(C)c3c2)C1 (single isomer, unassigned) [Example 26, 27 (Enantiomer I)]
> 1	COCC1(C(=O)N2CCc3ncc(C(F)(F)F)cc3C2)CCN(Cc2ccc3ccc(=O)n(C)c3c2)C1 (single isomer, unassigned) [Example 26, 27 (Enantiomer II)]
< 0.2	COCC1(C(=O)N2CCc3ncc(C(F)(F)F)cc3C2)CCN(C2CCC(O)(c3ccc(OC)nc3)CC2)C1 (single isomer, unassigned) [Example 30, 31 (Isomer I), (1-(4-Hydroxy-4-(6-methoxypyridin-3-yl)cyclohexyl)-3-(methoxymethyl)pyrrolidin-3-yl)(3-(trifluoromethyl)-7,8-dihydro-1,6-naphthyridin-6(5H)-yl)methanone]
> 1	COCC1(C(=O)N2CCc3ncc(C(F)(F)F)cc3C2)CCN(C2CCC(O)(c3ccc(OC)nc3)CC2)C1 (single isomer, unassigned) [Example 30, 31 (Isomer II), (1-(4-Hydroxy-4-(6-methoxypyridin-3-yl)cyclohexyl)-3-(methoxymethyl)pyrrolidin-3-yl)(3-(trifluoromethyl)-7,8-dihydro-1,6-naphthyridin-6(5H)-yl)methanone]
< 0.2	COCC1(C(=O)N2CCc3ncc(C(F)(F)F)cc3C2)CCN(Cc2ccc3oc(=O)n(C)c3c2)C1 (single isomer, unassigned) [Example 40, 41 (Enantiomer I)]
0.2 to 1	COCC1(C(=O)N2CCc3ncc(C(F)(F)F)cc3C2)CCN(Cc2ccc3oc(=O)n(C)c3c2)C1 (single isomer, unassigned) [Example 40, 41 (Enantiomer II)]
< 0.2	COCC1(C(=O)N2CCc3ncc(C(F)(F)F)cc3C2)CCN(C2CCC(c3ccc(OC)nc3)CC2)C1 (single isomer, unassigned) [Example 50, 51 (Isomer I), (3-(Methoxymethyl)-1-(4-(6-methoxypyridin-3-yl)cyclohexyl)pyrrolidin-3-yl)(3-(trifluoromethyl)-7,8-dihydro-1,6-naphthyridin-6(5H)-yl)methanone]
< 0.2	COCC1(C(=O)N2CCc3ncc(C(F)(F)F)cc3C2)CCN(C2CCC(c3ccc(OC)nc3)CC2)C1 (single isomer, unassigned) [Example 50, 51 (Isomer II), (3-(Methoxymethyl)-1-(4-(6-methoxypyridin-3-yl)cyclohexyl)pyrrolidin-3-yl)(3-(trifluoromethyl)-7,8-dihydro-1,6-naphthyridin-6(5H)-yl)methanone]
0.2 to 1	COCC1(C(=O)N2CCc3ncc(C(F)(F)F)cc3C2)CCN(C2CCC(c3cncnc3)CC2)C1 (single isomer, unassigned) [Example 54, 55 (Isomer II), (3-(Methoxymethyl)-1-(4-(pyrimidin-5-yl)cyclohexyl)pyrrolidin-3-yl)(3-(trifluoromethyl)-7,8-dihydro-1,6-naphthyridin-6(5H)-yl)methanone]
< 0.2	COCC1(C(=O)N2CCc3ncc(C(F)(F)F)cc3C2)CCN(C2CCC(c3ccc(F)cc3)CC2)C1 (single isomer, unassigned) [Example 56, 57 (Isomer I), (1-(4-(4-Fluorophenyl)cyclohexyl)-3-(methoxymethyl)pyrrolidin-3-yl)(3-(trifluoromethyl)-7,8-dihydro-1,6-naphthyridin-6(5H)-yl)methanone]
> 1	COc1cc2c(cc1CN1CCC(CC3CC3)(C(=O)N3CCc4ncc(C(F)(F)F)cc4C3)C1)OC(C)C2 (stereo not shown) [Example 10, (3-(Cyclopropylmethyl)-1-((5-methoxy-2-methyl-2,3-dihydrobenzofuran-6-yl)methyl)pyrrolidin-3-yl)(3-(trifluoromethyl)-7,8-dihydro-1,6-naphthyridin-6(5H)-yl)methanone]
